This note sets out measurements from ChEMBL document CHEMBL1201862, “PubChem BioAssay data set” (2004).

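Grown in 96-well plates, cells were treated for 48 hours with each compound at five concentrations. Insufficient inhibition: endpoint recorded as highest concentration tested. The concentration for 50% growth inhibition is given as GI50.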 The source made the active and inactive calls. Rule as the data show it: active = GI50 up to about 1.1 µM and inactive = higher.

Test systems include CCRF-CEM; SF-539; HOP-92; SF-295; SNB-19; NCI-H23; HL-60; UACC-62; UACC-257; OVCAR-8; HOP-62; OVCAR-4; NCI-H226; SNB-75; ACHN; KM12; MDA-MB-435; DU-145; MDA-N.
What all share (experiment): growth of human tumour cells (NCI), 48 h

Take `CCC1(CC)C(=O)NC(=O)NC1=S`: the GI50 with CCRF-CEM, in the assay with SF-539, in the assay on HOP-92, in the assay on SF-295, with SNB-19 and with NCI-H23 was > 100 µM (inactive) each time. The GI50 in the assay on HL-60, in the assay with UACC-62, with UACC-257, in the assay on OVCAR-8, in the assay on HOP-62 and in the assay with OVCAR-4 was > 100 µM (inactive) throughout. Moreover, the GI50 in the assay on NCI-H226, with SNB-75 and in the assay on ACHN was > 100 µM (inactive) each time.

Consider `COc1ccc(NC(=O)CC2SC(Nc3ccc(Cl)cc3C)=NC2=O)c([N+](=O)[O-])c1` (stereo not drawn), for which the GI50 in the assay with CCRF-CEM, in the assay on SF-539, in the assay with HOP-92, in the assay on SF-295, in the assay with SNB-19 and in the assay on NCI-H23 was > 100 µM (inactive) in each case. In addition, the GI50 in the assay on HL-60, in the assay on UACC-62, with UACC-257, with OVCAR-8, in the assay with OVCAR-4 and in the assay with NCI-H226 was > 100 µM (inactive) in each case. The GI50 with SNB-75 and in the assay with ACHN was > 100 µM (inactive) each time.

Consider `O=c1c2c(c1=O)-c1ccccc1CN2`, for which the GI50 with CCRF-CEM, with SF-539, in the assay on HOP-92, in the assay with SNB-19, in the assay with NCI-H23 and in the assay with HL-60 was > 100 µM (inactive) each time. In addition, the GI50 with UACC-62, in the assay on UACC-257, in the assay with OVCAR-8, with HOP-62, in the assay on OVCAR-4 and in the assay on NCI-H226 was > 100 µM (inactive) throughout. Besides, the GI50 with SNB-75, in the assay with KM12 and with ACHN was > 100 µM (inactive) throughout.

As to `COc1ccc([C@@H]2CC(=O)NCCCNCCCCNCCCN2)cc1`, the GI50 with CCRF-CEM, in the assay with SF-539, with HOP-92, with SF-295, with SNB-19 and with NCI-H23 was > 100 µM (inactive) in each case. Moreover, the GI50 in the assay with HL-60, in the assay on UACC-62, with UACC-257, with OVCAR-8, in the assay with HOP-62 and in the assay on OVCAR-4 was > 100 µM (inactive) each time. Moreover, the GI50 with NCI-H226 was 79.6 µM (inactive); in the assay with SNB-75 it was > 100 µM (inactive); with KM12, > 100 µM (inactive); with ACHN it was > 100 µM (inactive).

`O=C(Nc1ccc(Cl)cc1C(F)(F)F)C(=O)C1CCCS1(=O)=O` (stereo not drawn): the GI50 in the assay on CCRF-CEM is > 100 µM (inactive); in the assay with SF-539 it was > 100 µM (inactive); in the assay on HOP-92 it was > 10 µM (inactive); in the assay on SF-295, > 100 µM (inactive); in the assay on SNB-19 it was > 100 µM (inactive); with NCI-H23, > 100 µM (inactive). The GI50 in the assay on HL-60, in the assay with UACC-62, in the assay on UACC-257, in the assay with OVCAR-8, with HOP-62 and with OVCAR-4 was > 100 µM (inactive) each time. Besides, the GI50 in the assay with NCI-H226, with SNB-75, in the assay with KM12 and with ACHN was > 100 µM (inactive) each time.

Regarding `C=C(NC(=O)C(=C)NC(=O)c1csc(C2=NC3c4csc(n4)C4NC(=O)c5csc(n5)C(C(C)(O)C(C)O)NC(=O)C5CSC(=N5)/C(=C/C)NC(=O)C(C(C)O)NC(=O)c5csc(n5)C3(CC2)NC(=O)C(C)NC(=O)C(=C)NC(=O)C(C)NC(=O)C(C(C)CC)NC2C=Cc3c(C(C)O)cc(nc3C2O)C(=O)OC4C)n1)C(N)=O` (stereo not drawn), the GI50 is 0.297 µM (active) in the assay with CCRF-CEM; 1.73 µM (inactive) in the assay on SF-539; 1.7 µM (inactive) in the assay with HOP-92; 4 µM (inactive) with SF-295; 2.69 µM (inactive) in the assay on SNB-19; 2.79 µM (inactive) in the assay on NCI-H23. Moreover, the GI50 in the assay with HL-60 is 2.69 µM (inactive); with UACC-62, 1.24 µM (inactive); with UACC-257, 1.75 µM (inactive); in the assay on HOP-62 it was 9.35 µM (inactive); in the assay on OVCAR-4 it was 19.9 µM (inactive); in the assay on NCI-H226, 1.9 µM (inactive). For the same compound, the GI50 is 1.82 µM (inactive) in the assay with SNB-75, 1.93 µM (inactive) with KM12 and 2.32 µM (inactive) with ACHN.

In the case of `O=C1CSC(c2ccc([N+](=O)[O-])cc2)N1c1nc(-c2ccc3c(c2)CCCC3)cs1` (stereo not drawn), the GI50 in the assay with SF-539 was 27.2 µM (inactive); with MDA-MB-435, 33.4 µM (inactive); in the assay on SF-295 it was > 100 µM (inactive); in the assay with SNB-19, > 100 µM (inactive); with NCI-H23, > 100 µM (inactive); with HL-60 it was > 100 µM (inactive). The GI50 with UACC-62 is 63.1 µM (inactive); in the assay on DU-145, > 100 µM (inactive); in the assay on MDA-N it was > 100 µM (inactive); with UACC-257 it was > 100 µM (inactive); in the assay with OVCAR-8, > 100 µM (inactive); with HOP-62, > 100 µM (inactive). The GI50 with OVCAR-4 was > 100 µM (inactive); with NCI-H226, > 100 µM (inactive); with SNB-75 it was 86.9 µM (inactive); in the assay on KM12, > 100 µM (inactive); in the assay with ACHN, > 100 µM (inactive).

Regarding `C[C@H]1CC(=O)C2=CCCC3(SCCCS3)[C@@H]2[C@H]1CO`, the GI50 was 26.9 µM (inactive) in the assay with CCRF-CEM; > 100 µM (inactive) with SF-539; > 100 µM (inactive) in the assay with HOP-92; > 100 µM (inactive) in the assay with SF-295; > 100 µM (inactive) in the assay with SNB-19; > 100 µM (inactive) in the assay on NCI-H23. Moreover, the GI50 with HL-60 is 27.1 µM (inactive); in the assay on UACC-62, > 100 µM (inactive); in the assay on UACC-257 it was > 100 µM (inactive); with OVCAR-8, > 100 µM (inactive); in the assay with HOP-62 it was > 100 µM (inactive); in the assay with OVCAR-4, > 100 µM (inactive). In addition, the GI50 in the assay with NCI-H226, in the assay on SNB-75, in the assay on KM12 and in the assay with ACHN was > 100 µM (inactive) in each case.

For the compound `CCOC(=O)C1=CCOc2cc(N(C)C)ccc21`, the GI50 in the assay on CCRF-CEM was 21.6 µM (inactive); in the assay on SF-539 it was > 100 µM (inactive); in the assay on MDA-MB-435, > 100 µM (inactive); with SF-295 it was > 100 µM (inactive); with SNB-19, > 100 µM (inactive); in the assay with NCI-H23 it was > 100 µM (inactive). The GI50 in the assay on HL-60 was 31.8 µM (inactive); in the assay with UACC-62 it was > 100 µM (inactive); in the assay on DU-145, > 100 µM (inactive); in the assay with MDA-N, > 100 µM (inactive); in the assay with UACC-257, > 100 µM (inactive); in the assay on OVCAR-8, > 100 µM (inactive). Further, the GI50 with HOP-62 is > 100 µM (inactive); in the assay with NCI-H226, > 100 µM (inactive); in the assay on SNB-75 it was 43.4 µM (inactive); with KM12 it was > 100 µM (inactive); in the assay on ACHN, > 100 µM (inactive).

On to `N#CCCC(CC#N)N1CCN(C(CC#N)CCC#N)CC1` (stereo not drawn), for which the GI50 in the assay with CCRF-CEM, in the assay on SF-539, in the assay with SF-295, in the assay with SNB-19, with NCI-H23 and in the assay on HL-60 was > 100 µM (inactive) each time. In addition, the GI50 in the assay with UACC-62, in the assay on DU-145, in the assay with MDA-N, in the assay with UACC-257, with OVCAR-8 and with HOP-62 was > 100 µM (inactive) throughout. For the same compound, the GI50 with OVCAR-4, in the assay with NCI-H226, with SNB-75 and with ACHN was > 100 µM (inactive) in each case.

In the case of `CCOC(OCC)[C@H](N)[C@@H](O)[C@@H](O)[C@H]1COC(C)(C)O1`, the GI50 in the assay with CCRF-CEM, in the assay with MDA-MB-435, in the assay with SF-295, in the assay on SNB-19, in the assay on NCI-H23 and in the assay on UACC-62 was > 100 µM (inactive) throughout. Also, the GI50 in the assay on DU-145, in the assay on MDA-N, in the assay on UACC-257, in the assay on OVCAR-8, with HOP-62 and with OVCAR-4 was > 100 µM (inactive) in each case. Besides, the GI50 with NCI-H226, with SNB-75, with KM12 and in the assay with ACHN was > 100 µM (inactive) each time.

`O=C(OC1CCC(=C2SCCCS2)[C@H]1C1SCCCS1)c1ccccc1` (stereo partly drawn): the GI50 is > 100 µM (inactive) in the assay on CCRF-CEM; > 100 µM (inactive) with SF-539; 16.9 µM (inactive) in the assay on HOP-92; > 100 µM (inactive) with SF-295; > 100 µM (inactive) in the assay with SNB-19; > 100 µM (inactive) in the assay with NCI-H23. In addition, the GI50 with HL-60 is 52.7 µM (inactive); with UACC-62, 45.4 µM (inactive); with UACC-257, > 100 µM (inactive); in the assay with OVCAR-8, > 100 µM (inactive); in the assay on HOP-62 it was > 100 µM (inactive); with OVCAR-4, 84.5 µM (inactive). The GI50 in the assay on NCI-H226 was 30.5 µM (inactive); in the assay with KM12 it was > 100 µM (inactive); in the assay on ACHN, > 100 µM (inactive).
